Source: PubChem BioAssay AID226 (DTP/NCI, 2004)
Several values for one entry are separate records, joined by “and”; a condition that tells them apart may be missing. Equal values may be shown once. Toxic doses and inconclusive results are not listed.

Test system: B6C3F1 mice, intracerebral ependymoblastoma, median survival T/C
Assay: NCI In Vivo Anticancer Drug Screen. Data for tumor model Ependymoblastoma (intracerebral) in B6C3F1 mice
Conditions: endpoint: median survival time, higher = longer survival
Procedure: The antitumor activity of compounds was measured in mice bearing transplantable tumors. Survival or tumor size were measured and the results are expressed as the measurement made in the treated group (T) divided by the measurement made in the vehicle treated control group (C). The tumor model used in this assay is Ependymoblastoma (intracerebral) in B6C3F1 mice

[1] = dose: 2.0 mg/kg/injection, schedule: Q01DX005 (ip), vehicle: saline
[2] = dose: 4.0 mg/kg/injection, schedule: Q01DX005 (ip), vehicle: saline
[3] = dose: 8.0 mg/kg/injection, schedule: Q01DX005 (ip), vehicle: saline
[4] = dose: 40.0 mg/kg/injection, schedule: Q01DX001 (ip), vehicle: saline
[5] = dose: 80.0 mg/kg/injection, schedule: Q01DX001 (ip), vehicle: saline
[6] = dose: 32.0 mg/kg/injection, schedule: Q01DX005 (ip), vehicle: saline
[7] = dose: 64.0 mg/kg/injection, schedule: Q01DX005 (ip), vehicle: saline
[8] = dose: 128.0 mg/kg/injection, schedule: Q01DX005 (ip), vehicle: saline with Tween-80
[9] = dose: 32.0 mg/kg/injection, schedule: Q01DX005 (ip), vehicle: saline with Tween-80
[10] = dose: 0.5 mg/kg/injection, schedule: Q01DX005 (ip), vehicle: saline
[11] = dose: 1.0 mg/kg/injection, schedule: Q01DX005 (ip), vehicle: saline

## Nc1ccc(S(=O)(=O)c2ccc(N)cc2)cc1
dose: 25.0 mg/kg/injection, schedule: Q01DX005 (ip), vehicle: saline with Tween-80
  T/C: 122 % of control
dose: 50.0 mg/kg/injection, schedule: Q01DX005 (ip), vehicle: saline with Tween-80
  T/C: 100 % of control
dose: 100.0 mg/kg/injection, schedule: Q01DX005 (ip), vehicle: saline with Tween-80
  T/C: 108 % of control

## NC(=S)c1cn(C2OC(CO)C(O)C2O)c2ncnc(N)c12 (configuration not stated)
dose: 1.88 mg/kg/injection, schedule: Q01DX005 (ip), vehicle: suspension in saline
  T/C: 94 % of control
dose: 3.75 mg/kg/injection, schedule: Q01DX005 (ip), vehicle: suspension in saline
  T/C: 97 % of control
dose: 7.5 mg/kg/injection, schedule: Q01DX005 (ip), vehicle: suspension in saline
  T/C: 108 % of control

## CN(C)C1=CC(=O)C(N(C)C)=CC1=O
dose: 12.5 mg/kg/injection, schedule: Q01DX005 (ip), vehicle: saline
  T/C: 105 % of control
dose: 25.0 mg/kg/injection, schedule: Q01DX005 (ip), vehicle: saline
  T/C: 101 % of control
dose: 50.0 mg/kg/injection, schedule: Q01DX005 (ip), vehicle: saline
  T/C: 100 % of control
dose: 100.0 mg/kg/injection, schedule: Q01DX005 (ip), vehicle: saline
  T/C: 97 % of control

## CCN(CC)c1ccc2cc3ccc(=[N+](CC)CC)cc-3oc2c1
[1]
  T/C: 110 % of control
[2]
  T/C: 90 % of control
[3]
  T/C: 93 % of control

## C1CN(P2(N3CC3)=NP(N3CC3)(N3CC3)=NP(N3CC3)(N3CC3)=N2)CCO1 (configuration not stated)
dose: 20.0 mg/kg/injection, schedule: Q01DX001 (ip), vehicle: saline
  T/C: 101 % of control
[4]
  T/C: 102 % of control
[5]
  T/C: 96 % of control

## CN(C)/N=N/c1[nH]ncc1C(N)=O
[6]
  T/C: 150 % of control
[7]
  T/C: 176 % of control
[8]
  T/C: 151 % of control
dose: 128.0 mg/kg/injection, schedule: Q01DX005 (ip), vehicle: saline
  T/C: 155 % of control
dose: 256.0 mg/kg/injection, schedule: Q01DX005 (ip), vehicle: saline
  T/C: 96 % of control

## CSCS(=O)C[C@H](CO)NC(=O)/C=C/c1c(C)[nH]c(=O)[nH]c1=O (some centres not stated)
dose: 0.06 mg/kg/injection, schedule: Q01DX005 (ip), vehicle: Klucel (hydroxypropylcellulose) (HPC)
  T/C: 105 % of control
dose: 0.12 mg/kg/injection, schedule: Q01DX001 (ip), vehicle: Klucel (hydroxypropylcellulose) (HPC)
  T/C: 102 % of control and 104 % of control and 107 % of control
dose: 0.12 mg/kg/injection, schedule: Q01DX005 (ip), vehicle: Klucel (hydroxypropylcellulose) (HPC)
  T/C: 100 % of control
dose: 0.25 mg/kg/injection, schedule: Q01DX001 (ip), vehicle: Klucel (hydroxypropylcellulose) (HPC)
  T/C: 101 % of control and 102 % of control and 112 % of control
dose: 0.25 mg/kg/injection, schedule: Q01DX005 (ip), vehicle: Klucel (hydroxypropylcellulose) (HPC)
  T/C: 105 % of control
dose: 0.5 mg/kg/injection, schedule: Q01DX001 (ip), vehicle: Klucel (hydroxypropylcellulose) (HPC)
  T/C: 97 % of control and 103 % of control and 109 % of control
dose: 0.5 mg/kg/injection, schedule: Q01DX005 (ip), vehicle: Klucel (hydroxypropylcellulose) (HPC)
  T/C: 102 % of control
dose: 1.0 mg/kg/injection, schedule: Q01DX001 (ip), vehicle: Klucel (hydroxypropylcellulose) (HPC)
  T/C: 96 % of control and 97 % of control and 102 % of control

## CN(C)N=Nc1ccc(C(=O)O)cc1
[9]
  T/C: 122 % of control

## OCC1OC(n2cnc3c2NC=NC[C@H]3O)CC1O (some centres not stated)
dose: 0.12 mg/kg/injection, schedule: Q#ADX018 (ip), vehicle: saline
  T/C: 102 % of control
dose: 0.25 mg/kg/injection, schedule: Q01DX005 (ip), vehicle: saline
  T/C: 108 % of control and 113 % of control
dose: 0.25 mg/kg/injection, schedule: Q#ADX018 (ip), vehicle: saline
  T/C: 103 % of control
[10]
  T/C: 100 % of control and 103 % of control
dose: 0.5 mg/kg/injection, schedule: Q01DX009 (ip), vehicle: saline
  T/C: 103 % of control and 116 % of control
dose: 0.5 mg/kg/injection, schedule: Q#A X010 (ip), vehicle: saline
  T/C: 122 % of control
dose: 1.0 mg/kg/injection, schedule: Q01DX009 (ip), vehicle: saline
  T/C: 88 % of control
dose: 2.0 mg/kg/injection, schedule: Q01DX009 (ip), vehicle: saline
  T/C: 91 % of control

## CC(=O)OCC1C(=O)OCC1C(=O)N1Cc2cc3ccccc3nc2C1 (configuration not stated)
dose: 4.0 mg/kg/injection, schedule: Q01DX005 (ip), vehicle: saline with Tween-80
  T/C: 99 % of control
dose: 8.0 mg/kg/injection, schedule: Q01DX005 (ip), vehicle: saline with Tween-80
  T/C: 103 % of control and 104 % of control
dose: 16.0 mg/kg/injection, schedule: Q01DX005 (ip), vehicle: saline with Tween-80
  T/C: 104 % of control
[9]
  T/C: 104 % of control
dose: 64.0 mg/kg/injection, schedule: Q01DX005 (ip), vehicle: saline with Tween-80
  T/C: 90 % of control and 101 % of control
[8]
  T/C: 90 % of control

## N[C@@H](Cc1ccc(N(CCCl)CCCl)cc1)C(=O)O
dose: 0.5 mg/kg/injection, schedule: Q01DX001 (ip), vehicle: saline
  T/C: 102 % of control
[10]
  T/C: 93 % of control
dose: 1.0 mg/kg/injection, schedule: Q01DX001 (ip), vehicle: saline
  T/C: 98 % of control and 102 % of control and 105 % of control
[11]
  T/C: 107 % of control
dose: 2.0 mg/kg/injection, schedule: Q01DX001 (ip), vehicle: saline
  T/C: 102 % of control and 104 % of control and 110 % of control
[1]
  T/C: 109 % of control
dose: 4.0 mg/kg/injection, schedule: Q01DX001 (ip), vehicle: saline
  T/C: 96 % of control and 103 % of control and 110 % of control
dose: 8.0 mg/kg/injection, schedule: Q01DX001 (ip), vehicle: saline
  T/C: 103 % of control and 113 % of control and 117 % of control

## CN=NNc1nc[nH]c1C(N)=O
[3]
  T/C: 99 % of control
dose: 16.0 mg/kg/injection, schedule: Q01DX005 (ip), vehicle: saline
  T/C: 106 % of control
[6]
  T/C: 110 % of control
[7]
  T/C: 123 % of control

## O=P1(N(CCCl)CCCl)NC(OO)CCO1 (configuration not stated)
[4]
  T/C: 102 % of control
[5]
  T/C: 108 % of control
dose: 160.0 mg/kg/injection, schedule: Q01DX001 (ip), vehicle: saline
  T/C: 113 % of control

## COc1cc(NS(C)(=O)=O)ccc1Nc1c2ccccc2nc2ccccc12
dose: 1.0 mg/kg/injection, schedule: Q01DX005 (ip), vehicle: Klucel (hydroxypropylcellulose) (HPC)
  T/C: 110 % of control
[11]
  T/C: 103 % of control and 104 % of control
dose: 1.0 mg/kg/injection, schedule: Q01DX005 (ip), vehicle: water
  T/C: 94 % of control and 96 % of control (2×)
dose: 2.0 mg/kg/injection, schedule: Q01DX005 (ip), vehicle: Klucel (hydroxypropylcellulose) (HPC)
  T/C: 99 % of control
[1]
  T/C: 107 % of control and 112 % of control
dose: 2.0 mg/kg/injection, schedule: Q01DX005 (ip), vehicle: water
  T/C: 94 % of control and 100 % of control and 101 % of control
dose: 4.0 mg/kg/injection, schedule: Q01DX005 (ip), vehicle: Klucel (hydroxypropylcellulose) (HPC)
  T/C: 103 % of control
[2]
  T/C: 103 % of control
dose: 4.0 mg/kg/injection, schedule: Q01DX005 (ip), vehicle: water
  T/C: 96 % of control and 100 % of control and 108 % of control
[3]
  T/C: 106 % of control and 112 % of control
dose: 8.0 mg/kg/injection, schedule: Q01DX005 (ip), vehicle: water
  T/C: 100 % of control and 107 % of control and 112 % of control

## ClC1=C(Cl)C2(Cl)C3C(Cl)C(Cl)CC3C1(Cl)C2(Cl)Cl (configuration not stated)
dose: 6.0 mg/kg/injection, schedule: Q01DX005 (ip), vehicle: saline with Tween-80
  T/C: 99 % of control and 100 % of control and 105 % of control
dose: 6.25 mg/kg/injection, schedule: Q01DX005 (ip), vehicle: other
  T/C: 101 % of control
dose: 12.0 mg/kg/injection, schedule: Q01DX005 (ip), vehicle: saline with Tween-80
  T/C: 95 % of control and 96 % of control and 105 % of control
dose: 12.5 mg/kg/injection, schedule: Q01DX005 (ip), vehicle: other
  T/C: 108 % of control
dose: 24.0 mg/kg/injection, schedule: Q01DX005 (ip), vehicle: saline with Tween-80
  T/C: 96 % of control and 105 % of control and 87 % of control
dose: 25.0 mg/kg/injection, schedule: Q01DX005 (ip), vehicle: other
  T/C: 98 % of control
dose: 45.0 mg/kg/injection, schedule: Q01DX005 (ip), vehicle: saline with Tween-80
  T/C: 94 % of control and 101 % of control and 110 % of control
dose: 50.0 mg/kg/injection, schedule: Q01DX005 (ip), vehicle: other
  T/C: 109 % of control
dose: 90.0 mg/kg/injection, schedule: Q01DX005 (ip), vehicle: saline with Tween-80
  T/C: 101 % of control and 86 % of control and 89 % of control

## COc1nc(C(Cl)(Cl)Cl)c(Cl)c(OC)c1Cl
dose: 25.0 mg/kg/injection, schedule: Q01DX005 (ip), vehicle: Klucel (hydroxypropylcellulose) (HPC)
  T/C: 94 % of control
dose: 50.0 mg/kg/injection, schedule: Q01DX005 (ip), vehicle: Klucel (hydroxypropylcellulose) (HPC)
  T/C: 107 % of control
dose: 100.0 mg/kg/injection, schedule: Q01DX005 (ip), vehicle: Klucel (hydroxypropylcellulose) (HPC)
  T/C: 114 % of control
